Experimental findings from ChEMBL document CHEMBL1909046, “DrugMatrix in vitro pharmacology data” are described below.

SMILES strings stand for the structures.

Sequence of Mitogen-activated protein kinase 1 (P28482 whole entry): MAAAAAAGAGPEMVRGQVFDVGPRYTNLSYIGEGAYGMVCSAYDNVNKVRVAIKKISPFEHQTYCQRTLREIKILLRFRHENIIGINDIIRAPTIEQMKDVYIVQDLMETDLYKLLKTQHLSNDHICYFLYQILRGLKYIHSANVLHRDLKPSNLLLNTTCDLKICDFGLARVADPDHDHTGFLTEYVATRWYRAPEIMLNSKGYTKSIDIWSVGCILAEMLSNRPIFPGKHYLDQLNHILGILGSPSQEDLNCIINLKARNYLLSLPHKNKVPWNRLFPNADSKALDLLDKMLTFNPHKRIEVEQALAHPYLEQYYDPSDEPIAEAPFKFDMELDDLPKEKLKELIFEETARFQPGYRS

One data set addresses T1, D(4) dopamine receptor (Homo sapiens, UniProt P21917).
T1 sequence (P21917 whole entry): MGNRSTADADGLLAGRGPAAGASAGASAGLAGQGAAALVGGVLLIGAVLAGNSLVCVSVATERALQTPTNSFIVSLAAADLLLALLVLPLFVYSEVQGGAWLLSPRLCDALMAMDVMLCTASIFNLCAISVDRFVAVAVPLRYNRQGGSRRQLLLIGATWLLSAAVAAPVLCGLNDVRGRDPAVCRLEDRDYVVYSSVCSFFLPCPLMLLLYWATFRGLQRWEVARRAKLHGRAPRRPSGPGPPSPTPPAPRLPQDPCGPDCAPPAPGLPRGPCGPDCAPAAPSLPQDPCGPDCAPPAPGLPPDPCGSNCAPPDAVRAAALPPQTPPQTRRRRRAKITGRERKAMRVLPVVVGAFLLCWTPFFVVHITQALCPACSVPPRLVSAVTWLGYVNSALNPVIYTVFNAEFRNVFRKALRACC
The data set is described as follows: DRUGMATRIX: Dopamine D4.2 radioligand binding (ligand: [3H] Spiperone). The note with it: cho-k1; Not Active = under 50% inhibition at 10 µM. The format is cell membranes, CHO-K1, Membrane.
`COc1ccc2c3c1O[C@H]1C[C@@H](O)C=C[C@@]31CCN(C)C2` [GALANTAMINE]: the IC50 entry is reported as “Not Active”.

On to `CC(C)=CCC/C(C)=C/CO` [GERANIOL], for which the half-maximal inhibitory concentration (IC50) result is “Not Active”.

Turning to `Oc1c(Cl)cc(Cl)c(Cl)c1Cc1c(O)c(Cl)cc(Cl)c1Cl` [HEXACHLOROPHENE], the 50% inhibitory concentration (IC50) result is listed as “Not Active”.

`CC(=O)[C@@]1(O)CC[C@H]2[C@@H]3CCC4=CC(=O)CC[C@]4(C)[C@H]3CC[C@@]21C` [HYDROXYPROGESTERONE]: the half-inhibitory concentration (IC50) result was “Not Active”.

For the molecule `O=c1cc(N2CCOCC2)oc2c(-c3ccccc3)cccc12` [LY-294002], the IC50 result was “Not Active”.

`CC(C)NCC(O)COc1cccc2[nH]ccc12` (configuration not stated) [PINDOLOL]: the 50% inhibitory concentration (IC50) entry is listed as “Not Active”.

As for `CCCNCC(O)COc1ccccc1C(=O)CCc1ccccc1` (configuration not stated) [PROPAFENONE], the IC50 entry is given as “Not Active”.

On to `CC(C)c1cccc(C(C)C)c1O` [PROPOFOL], for which the IC50 entry was “Not Active”.

The next data set has as its target Mitogen-activated protein kinase 1 (Homo sapiens, UniProt P28482). Put plainly: DRUGMATRIX: Protein Serine/Threonine Kinase, ERK2 enzyme inhibition (substrate: Myelin Basic Protein). Also noted: species or system Escherichia coli. The note with it: Not Active = under 50% inhibition at 10 µM.
Regarding `COc1ccc2c3c1O[C@H]1C[C@@H](O)C=C[C@@]31CCN(C)C2` [GALANTAMINE], the IC50 result is “Not Active”.

For `CC(C)=CCC/C(C)=C/CO` [GERANIOL], the 50% inhibitory concentration (IC50) entry was “Not Active”.

Consider `CC(=O)[C@@]1(O)CC[C@H]2[C@@H]3CCC4=CC(=O)CC[C@]4(C)[C@H]3CC[C@@]21C` [HYDROXYPROGESTERONE], for which the IC50 result is “Not Active”.

In the case of `O=c1cc(N2CCOCC2)oc2c(-c3ccccc3)cccc12` [LY-294002], the concentration for half-maximal inhibition (IC50) result was “Not Active”.

As for `CC(C)NCC(O)COc1cccc2[nH]ccc12` (configuration not stated) [PINDOLOL], the IC50 result is reported as “Not Active”.

`CCCNCC(O)COc1ccccc1C(=O)CCc1ccccc1` (configuration not stated) [PROPAFENONE]: the half-maximal inhibitory concentration (IC50) result is “Not Active”.

With `CC(C)c1cccc(C(C)C)c1O` [PROPOFOL], the concentration for half-maximal inhibition (IC50) entry was “Not Active”.

The same data set, now with this note: Not Active = under 50% inhibition at 10 µM; read-out: IC50.
With `Oc1c(Cl)cc(Cl)c(Cl)c1Cc1c(O)c(Cl)cc(Cl)c1Cl` [HEXACHLOROPHENE], the half-maximal inhibitory concentration (IC50) came out at 196 nM.

System in a further data set: not listed separately
Put plainly: DRUGMATRIX: Glutamate, NMDA, Phencyclidine radioligand binding (ligand: [3H] TCP). The note with it: Not Active = under 50% inhibition at 10 µM. The format is cell membranes, Rattus norvegicus, Wistar, Cerebral cortex, Membrane.
For `COc1ccc2c3c1O[C@H]1C[C@@H](O)C=C[C@@]31CCN(C)C2` [GALANTAMINE], the IC50 entry was “Not Active” and the Ki result is recorded as “Not Active”.

With `CC(C)=CCC/C(C)=C/CO` [GERANIOL], the IC50 result is on record as “Not Active” and the Ki entry is “Not Active”.

On to `Oc1c(Cl)cc(Cl)c(Cl)c1Cc1c(O)c(Cl)cc(Cl)c1Cl` [HEXACHLOROPHENE], for which the concentration for half-maximal inhibition (IC50) entry was “Not Active” and the Ki result is listed as “Not Active”.

As for `CC(=O)[C@@]1(O)CC[C@H]2[C@@H]3CCC4=CC(=O)CC[C@]4(C)[C@H]3CC[C@@]21C` [HYDROXYPROGESTERONE], the IC50 result is on record as “Not Active” and the Ki result is reported as “Not Active”.

Consider `O=c1cc(N2CCOCC2)oc2c(-c3ccccc3)cccc12` [LY-294002], for which the half-inhibitory concentration (IC50) entry is “Not Active” and the Ki entry is recorded as “Not Active”.

Consider `CC(C)NCC(O)COc1cccc2[nH]ccc12` (configuration not stated) [PINDOLOL], for which the concentration for half-maximal inhibition (IC50) entry is given as “Not Active” and the Ki result is reported as “Not Active”.

Consider `CCCNCC(O)COc1ccccc1C(=O)CCc1ccccc1` (configuration not stated) [PROPAFENONE], for which the half-inhibitory concentration (IC50) result is given as “Not Active” and the Ki result was “Not Active”.

For the molecule `CC(C)c1cccc(C(C)C)c1O` [PROPOFOL], the IC50 result is “Not Active” and the Ki entry was “Not Active”.

A further data set deals with T2, Nitric oxide synthase, inducible (Mus musculus, UniProt P29477).
T2 sequence (P29477 whole entry): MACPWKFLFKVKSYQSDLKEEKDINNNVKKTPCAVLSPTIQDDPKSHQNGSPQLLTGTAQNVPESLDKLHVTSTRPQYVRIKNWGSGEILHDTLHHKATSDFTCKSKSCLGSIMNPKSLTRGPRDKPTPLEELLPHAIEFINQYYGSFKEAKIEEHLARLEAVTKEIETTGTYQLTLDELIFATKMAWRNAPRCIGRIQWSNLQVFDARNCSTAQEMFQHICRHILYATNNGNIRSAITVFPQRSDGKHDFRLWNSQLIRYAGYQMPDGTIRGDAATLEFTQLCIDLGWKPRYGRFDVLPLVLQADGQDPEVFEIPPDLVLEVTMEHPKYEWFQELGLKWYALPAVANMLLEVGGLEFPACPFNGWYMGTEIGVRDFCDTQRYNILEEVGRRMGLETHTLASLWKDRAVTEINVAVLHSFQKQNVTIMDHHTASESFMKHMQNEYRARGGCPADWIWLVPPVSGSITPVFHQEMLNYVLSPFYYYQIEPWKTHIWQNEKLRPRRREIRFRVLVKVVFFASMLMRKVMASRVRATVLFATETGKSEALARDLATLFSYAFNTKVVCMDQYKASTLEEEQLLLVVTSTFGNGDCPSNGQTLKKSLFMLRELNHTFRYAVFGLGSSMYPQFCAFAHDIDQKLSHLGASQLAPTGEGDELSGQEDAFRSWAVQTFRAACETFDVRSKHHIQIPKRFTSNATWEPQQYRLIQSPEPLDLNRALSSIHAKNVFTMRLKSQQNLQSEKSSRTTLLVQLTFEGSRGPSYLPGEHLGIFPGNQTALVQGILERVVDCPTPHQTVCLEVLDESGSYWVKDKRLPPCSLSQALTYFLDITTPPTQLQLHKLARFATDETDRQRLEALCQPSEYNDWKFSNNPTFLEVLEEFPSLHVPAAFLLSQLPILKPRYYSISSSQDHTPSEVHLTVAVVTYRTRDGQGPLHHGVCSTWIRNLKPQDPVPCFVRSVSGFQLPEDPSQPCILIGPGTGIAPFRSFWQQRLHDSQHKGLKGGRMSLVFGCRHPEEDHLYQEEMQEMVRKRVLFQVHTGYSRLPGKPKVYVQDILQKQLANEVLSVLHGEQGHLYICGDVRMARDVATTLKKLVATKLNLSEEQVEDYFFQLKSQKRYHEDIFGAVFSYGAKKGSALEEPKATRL
On the set-up: species or system Escherichia coli.
Conditions: not given
Take `COc1ccc2c3c1O[C@H]1C[C@@H](O)C=C[C@@]31CCN(C)C2` [GALANTAMINE]: the half-inhibitory concentration (IC50) result is on record as “Not Active”.

As to `CC(C)=CCC/C(C)=C/CO` [GERANIOL], the IC50 result is on record as “Not Active”.

As to `Oc1c(Cl)cc(Cl)c(Cl)c1Cc1c(O)c(Cl)cc(Cl)c1Cl` [HEXACHLOROPHENE], the 50% inhibitory concentration (IC50) entry is on record as “Not Active”.

As for `CC(=O)[C@@]1(O)CC[C@H]2[C@@H]3CCC4=CC(=O)CC[C@]4(C)[C@H]3CC[C@@]21C` [HYDROXYPROGESTERONE], the half-inhibitory concentration (IC50) result is listed as “Not Active”.

Take `O=c1cc(N2CCOCC2)oc2c(-c3ccccc3)cccc12` [LY-294002]: the half-inhibitory concentration (IC50) entry is on record as “Not Active”.

As for `CC(C)NCC(O)COc1cccc2[nH]ccc12` (configuration not stated) [PINDOLOL], the IC50 result was “Not Active”.

Regarding `CCCNCC(O)COc1ccccc1C(=O)CCc1ccccc1` (configuration not stated) [PROPAFENONE], the half-inhibitory concentration (IC50) result is “Not Active”.

As to `CC(C)c1cccc(C(C)C)c1O` [PROPOFOL], the 50% inhibitory concentration (IC50) entry is listed as “Not Active”.

In a further data set the target is Carbonic anhydrase 2 (Homo sapiens, UniProt P00918). Put plainly: DRUGMATRIX: Carbonic Anhydrase II enzyme inhibition (substrate: 4-Nitrophenyl acetate (4-NPA)). The format is tissue-based. The conditions noted are these: erythrocyte; Not Active = under 50% inhibition at 10 µM.
Take `COc1ccc2c3c1O[C@H]1C[C@@H](O)C=C[C@@]31CCN(C)C2` [GALANTAMINE]: the concentration for half-maximal inhibition (IC50) result is recorded as “Not Active”.

Turning to `CC(C)=CCC/C(C)=C/CO` [GERANIOL], the IC50 entry is “Not Active”.

With `Oc1c(Cl)cc(Cl)c(Cl)c1Cc1c(O)c(Cl)cc(Cl)c1Cl` [HEXACHLOROPHENE], the IC50 result is given as “Not Active”.

On to `CC(=O)[C@@]1(O)CC[C@H]2[C@@H]3CCC4=CC(=O)CC[C@]4(C)[C@H]3CC[C@@]21C` [HYDROXYPROGESTERONE], for which the IC50 result was “Not Active”.

Turning to `O=c1cc(N2CCOCC2)oc2c(-c3ccccc3)cccc12` [LY-294002], the IC50 entry was “Not Active”.

As for `CC(C)NCC(O)COc1cccc2[nH]ccc12` (configuration not stated) [PINDOLOL], the IC50 entry was “Not Active”.

Take `CCCNCC(O)COc1ccccc1C(=O)CCc1ccccc1` (configuration not stated) [PROPAFENONE]: the half-maximal inhibitory concentration (IC50) result is listed as “Not Active”.

As for `CC(C)c1cccc(C(C)C)c1O` [PROPOFOL], the IC50 result is listed as “Not Active”.

For another data set, the target named is Tyrosine-protein kinase Lck (Homo sapiens, UniProt P06239). The data set is described as follows: DRUGMATRIX: Protein Tyrosine Kinase, LCK enzyme inhibition (substrate: Poly(Glu:Tyr)). The note with it: Not Active = under 50% inhibition at 10 µM; read-out: IC50. The format is cell-based, Insect cells.
Sequence of Tyrosine-protein kinase Lck (P06239 whole entry): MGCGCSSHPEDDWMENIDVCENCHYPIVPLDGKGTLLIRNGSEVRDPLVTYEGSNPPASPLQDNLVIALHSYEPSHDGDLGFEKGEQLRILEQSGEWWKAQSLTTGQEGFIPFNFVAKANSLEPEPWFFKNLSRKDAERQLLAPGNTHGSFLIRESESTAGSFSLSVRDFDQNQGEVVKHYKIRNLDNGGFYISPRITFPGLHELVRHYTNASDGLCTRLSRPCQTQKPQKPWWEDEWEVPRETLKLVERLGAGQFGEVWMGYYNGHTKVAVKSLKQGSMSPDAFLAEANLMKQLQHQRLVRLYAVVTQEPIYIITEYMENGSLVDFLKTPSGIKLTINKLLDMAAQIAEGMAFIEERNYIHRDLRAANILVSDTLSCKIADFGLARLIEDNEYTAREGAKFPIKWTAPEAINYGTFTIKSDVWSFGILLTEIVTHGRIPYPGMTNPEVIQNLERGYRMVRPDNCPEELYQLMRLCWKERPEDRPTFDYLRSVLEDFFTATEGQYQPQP
For `Oc1c(Cl)cc(Cl)c(Cl)c1Cc1c(O)c(Cl)cc(Cl)c1Cl` [HEXACHLOROPHENE], the IC50 was determined as 2430 nM.

Still in this data set, the particulars now being: insect cells; Not Active = under 50% inhibition at 10 µM.
As to `COc1ccc2c3c1O[C@H]1C[C@@H](O)C=C[C@@]31CCN(C)C2` [GALANTAMINE], the IC50 entry was “Not Active”.

Turning to `CC(C)=CCC/C(C)=C/CO` [GERANIOL], the IC50 result is on record as “Not Active”.

`CC(=O)[C@@]1(O)CC[C@H]2[C@@H]3CCC4=CC(=O)CC[C@]4(C)[C@H]3CC[C@@]21C` [HYDROXYPROGESTERONE]: the IC50 entry is reported as “Not Active”.

`CC(C)NCC(O)COc1cccc2[nH]ccc12` (configuration not stated) [PINDOLOL]: the IC50 entry is listed as “Not Active”.

For `CCCNCC(O)COc1ccccc1C(=O)CCc1ccccc1` (configuration not stated) [PROPAFENONE], the half-inhibitory concentration (IC50) result is “Not Active”.

In the case of `CC(C)c1cccc(C(C)C)c1O` [PROPOFOL], the 50% inhibitory concentration (IC50) entry was “Not Active”.

In a further data set the target is Cytochrome P450 2C19 (Homo sapiens, UniProt P33261). The conditions noted are these: bti-tn-5b1-4. Further: in other assays of this panel Not Active means under 50% inhibition at 10 µM.
Sequence of Cytochrome P450 2C19 (P33261 whole entry): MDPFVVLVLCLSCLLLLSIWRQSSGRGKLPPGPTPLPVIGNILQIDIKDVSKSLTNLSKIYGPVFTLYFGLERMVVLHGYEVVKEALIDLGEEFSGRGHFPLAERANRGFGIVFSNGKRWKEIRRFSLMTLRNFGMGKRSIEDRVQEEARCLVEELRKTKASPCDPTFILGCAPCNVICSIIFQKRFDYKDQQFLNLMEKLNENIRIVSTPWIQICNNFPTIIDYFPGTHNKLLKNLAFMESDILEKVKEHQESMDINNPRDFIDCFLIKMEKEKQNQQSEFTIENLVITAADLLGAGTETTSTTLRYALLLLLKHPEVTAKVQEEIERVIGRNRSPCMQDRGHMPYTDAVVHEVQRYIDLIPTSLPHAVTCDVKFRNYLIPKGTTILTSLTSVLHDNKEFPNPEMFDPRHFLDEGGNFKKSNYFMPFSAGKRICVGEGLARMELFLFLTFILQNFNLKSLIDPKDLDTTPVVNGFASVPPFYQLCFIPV
Take `O=c1cc(N2CCOCC2)oc2c(-c3ccccc3)cccc12` [LY-294002]: the IC50 entry is “Not Active” and the Ki entry is “Not Active”.

As usually defined, the IC50 is the concentration that gives 50% inhibition.
